The record followed here is patent US11974551B2, “L-serine compositions, methods and uses for treating neurodegenerative diseases and disorders” (priority 2011, dated 2024).

Structures are written as SMILES.

Experiment [1] relates to Drosophila fruit flies. Nature of the experiment: Fruit fly feeding: misincorporation of BMAA into proteins by LC/MS/MS. The class given is in vivo, Drosophila melanogaster. The following applies: media with 25 mM BMAA and 25 mM L-Serine vs 25 mM BMAA, three days of feeding. How it is done: Thirty flies were from each treatment were weighed and sonicated (Fisher Scientific sonic dismembrator model 100; 2 watts for 30 secs) in 10% trichloroacetic acid (TCA 72 μg/μl). TCA extraction was completed in two steps 20 h at 4° C. using one half the TCA volume followed by centrifugation ([…] for 3 min, Labnet Spectrafuge™ 16M microcentrifuge) and removal of supernatant. This was followed by a second sonication and extraction, 5 hours at room temperature using an equal volume of TCA, followed by centrifugation and removal of supernatant. The supernatants were pooled (with the exception of 50 μl removed from the last extraction) and centrifuge filtered (0.22 μm Ultrafree®-MC, Millipore). The remaining protein pellet was transferred to a glass vial and hydrolyzed in 6 M HCl for 16 hours at 110° C. (58 μg/μl). […] Extracts were diluted and derivatized with 6-aminoquinolyl-N-hydroxysuccinimidyl carbamate (AQC) and analyzed by LC-MS/MS.
6-Aminoquinolyl-N-hydroxysuccinimidyl carbamate derivates (AQC Waters AccQTag reagent, P/N WAT052880) were analyzed using a triple quadrupole instrument (Thermo Scientific Finnigan TSQ Quantum Ultra, San Jose, CA) after separation by a Waters Acquity-UHPLC system with a Binary Solvent Manager, Sample Manager and a Waters AccQTag Ultra column (part#186003837, 2.1×100 mm) at 55° C. […]

The test system of experiment [2] is Drosophila fruit flies. In words: Fruit fly feeding: mortality after three days. The class given is in vivo, Drosophila melanogaster. Particulars: media with 25 mM BMAA and 25 mM L-Serine, three days. As for the experimental part:
Preliminary studies show the ability of L-Serine to prevent misincorporation of BMAA into proteins. In a series of feeding experiments, Drosophila fruit flies were fed four different types of media: 1) standard fruit fly media with 0 mM BMAA (control), 2) media enriched with 25 mM L-Serine, 3) media with 25 mM BMAA added, and 4) media with both 25 mM BMAA and 25 mM L-Serine added for three days of feeding. Misincorporation of BMAA into proteins was then analyzed using triple quadrupole LC/MS/MS and Orbital Trap LC/MS/MS.
Equally interesting is the analysis of the protective value of L-Serine on Drosophila dosed with BMAA. Fruit flies fed with BMAA enriched media (third set of blocks) suffered a 40% mortality after three days, while flies fed with Serine plus BMAA (fourth set of blocks) had no mortality (FIG. 8). These flies were rescued by L-Serine.

The next experiment concerns MRC-5 cells. Nature of the experiment: Protein-bound non-labeled BMAA in hydrolysed cell proteins by triple quadrupole LC/MS/MS. The class given is cell-based, human. Particulars: BMAA 250-1000 μM with L-serine 250-1000 μM, or CHX. How it is done: After incubation with ^3H-BMAA or cold BMAA, cells were washed three times with PBS, lysed by freeze thawing in Triton-X-100 (0.1%) and cell proteins precipitated in TCA (5%). Protein pellets were washed three times with TCA (5%) and hydrolysed in boiling 6 M HCl at 110° C. for 16 hours as previously described (Mondo, et al., Mar Drugs 10, 509-520 (2012)). Protein pellets were freeze-dried and reconstituted in 20 mM HCl. Particulates were removed by centrifugation through […] membranes and the hydrolysate derivatized in AccQ·Tag (Waters Corporation, Australia). Amino acids were separated on a Waters C-18 column using a method and gradient as described previously (Mondo, et al., Mar Drugs 10, 509-520 (2012)). For recovery of radiolabel in hydrolysed samples, fractions were collected manually every minute for 40 minutes, diluted into 5 ml scintillant (Ultima Gold™ scintillant, Perkin Elmer) and disintegrations per minute (DPM) determined by LSC.
To further confirm that BMAA was present in cell proteins and incorporation was inhibited by L-serine, MRC-5 cells were incubated with a range of concentrations of BMAA (250-1000 μM) or BMAA with L-serine (250-1000 μM) and hydrolysed cell proteins were analyzed by tandem mass spectroscopy on a triple quadrupole LC/MS/MS. […]

As to `N[C@@H](CO)C(=O)O` [L-serine], the “effect on amount of BMAA misincorporation into proteins” value in the experiment on Drosophila fruit flies [1] is “reduces BMAA incorporation into proteins”; in the experiment with Drosophila fruit flies [1] (listed as L-Serine), “reduced by half”. For the same compound, the “mortality of flies fed BMAA plus L-Serine” value is “blocks BMAA induced mortality” with Drosophila fruit flies [2] and “no mortality” in the experiment on Drosophila fruit flies [2] (listed as L-Serine). The “effect on incorporation of non-labeled BMAA into cell proteins” value in the experiment with MRC-5 cells is “inhibited”.
